One assay relates to M14 melanoma cells. The experiment in a line: Cytotoxicity in confluent M14 cells, cell viability by CCK8 assay. The class given is cell-based. The conditions noted are these: Homo sapiens, M14, 48 h. The protocol:
M14 melanoma cells were seeded at 50,000 cells per well of 96-well plate in 100 μl of Dulbecco's minimum essential medium (DMEM) supplemented with 10% fetal bovine serum. Cells were cultured at 37° C. under 5% CO2-95% air. After 16 hours of incubation, the test compound was added to the cell culture. The compound was first diluted in 100% dimethyl sulfoxide (DMSO) at 400-fold of final concentrations actually used in the assay. The DMSO solution was next diluted 20 fold with the culture medium, and then finally added to the assay wells at another 20-fold dilution. The assay medium included the test compound with concentrations as indicated with 0.25% DMSO. Cell viability was measured with a CCK8 assay (as described in the Technical Manual for Cell Counting Kit-8, Product #CK04-11, CK04-13 and CK04-20, Dojindo Molecular Technologies, Inc. MD; Tantular, I. S. et al. Tropical Medicine and International Health, 8(6), 569-574, 2003) in the last 15 min after a 48 h incubation with the test compound. Each bar of the figure expresses average percent inhibition against vehicle (0.25% DMSO) control (n=4). Error bars indicate standard deviation.
Background: Formazan colour is commonly taken as a measure of viable cells.

Assay [1] deals with stage IV metastatic melanoma. The conditions noted are these: in combination with paclitaxel, relative to patients treated with paclitaxel alone; cited from earlier work.

Structures are written as SMILES. Bounds are passed on as bounds.

What is called IC50 is the concentration that gives 50% inhibition. Read a low IC50 as higher potency. In the assay with M14 melanoma cells, `CN(NC(=O)CC(=O)NN(C)C(=S)c1ccccc1)C(=S)c1ccccc1` [A] had an IC50 of over 12.5 µM.

Turning to `CN(NC(=O)CC(=O)NN(C)C(=S)c1ccccc1)C(=S)c1ccccc1` [N-malonyl-bis(N′-methyl-N′-thiobenzoylhydrazide)], the time to progression entry in assay [1] is listed as “increase the time to progression”.
